logD data for eleven compounds are collected here from the SangsterLogP compilation.

A short description of this series: method code SF, from DOI: 10.1016/0360-3016(89)90899-7, PMID: 2703405. The conditions noted are these: pH 7.4.
In general, logD refers to lipophilicity at a set pH, counting ionised and neutral species. The low end stands for lower lipophilicity, the high end for higher lipophilicity. For the compound `COc1n[n+]([O-])c2ccccc2[n+]1[O-]`, the logD was -0.3.

`Nc1n[n+]([O-])c2cc(OCC(O)CO)ccc2[n+]1[O-]` (stereo unspecified) showed a logD of -1.1.

`CC(=O)CC(=O)Nc1n[n+]([O-])c2ccccc2[n+]1[O-]` showed a logD of -1.4.

In the case of `Nc1n[n+]([O-])c2ccccc2[n+]1[O-]`, the logD is -0.3.

On to `Cc1ccc2c(c1)[n+]([O-])nc(N)[n+]2[O-]`, for which the log distribution coefficient (logD) stood at 0.2.

As for `[O-][n+]1cn[n+]([O-])c2ccccc21`, the logD was -0.8.

With `CC(=O)Nc1n[n+]([O-])c2cc(C)ccc2[n+]1[O-]`, the logD is -0.4.

Compound `COc1ccc2c(c1)[n+]([O-])c(N)n[n+]2[O-]` registered a logD of 0.

Compound `C=CCOc1ccc2c(c1)[n+]([O-])nc(N)[n+]2[O-]` registered a logD of 0.76.

Compound `Nc1n[n+]([O-])c2ccc(Cl)cc2[n+]1[O-]` returned a logD of 0.41.

`CC(=O)Nc1n[n+]([O-])c2ccccc2[n+]1[O-]` showed a logD of -0.6.
